Results on 31 molecules are retold here after article PMC8781192, “An In Silico and an In Vitro Inhibition Analysis of Glycogen Phosphorylase by Flavonoids, Styrylchromones, and Pyrazoles” (Nutrients, 2022).

Like-named read-outs stand apart in the source and are kept apart here.

The target in this test is T1, rabbit mGPa (Oryctolagus cuniculus, UniProt P00489).
T1 construct: purchased Creative Enzymes
T1 sequence (P00489 2-843 limits assumed): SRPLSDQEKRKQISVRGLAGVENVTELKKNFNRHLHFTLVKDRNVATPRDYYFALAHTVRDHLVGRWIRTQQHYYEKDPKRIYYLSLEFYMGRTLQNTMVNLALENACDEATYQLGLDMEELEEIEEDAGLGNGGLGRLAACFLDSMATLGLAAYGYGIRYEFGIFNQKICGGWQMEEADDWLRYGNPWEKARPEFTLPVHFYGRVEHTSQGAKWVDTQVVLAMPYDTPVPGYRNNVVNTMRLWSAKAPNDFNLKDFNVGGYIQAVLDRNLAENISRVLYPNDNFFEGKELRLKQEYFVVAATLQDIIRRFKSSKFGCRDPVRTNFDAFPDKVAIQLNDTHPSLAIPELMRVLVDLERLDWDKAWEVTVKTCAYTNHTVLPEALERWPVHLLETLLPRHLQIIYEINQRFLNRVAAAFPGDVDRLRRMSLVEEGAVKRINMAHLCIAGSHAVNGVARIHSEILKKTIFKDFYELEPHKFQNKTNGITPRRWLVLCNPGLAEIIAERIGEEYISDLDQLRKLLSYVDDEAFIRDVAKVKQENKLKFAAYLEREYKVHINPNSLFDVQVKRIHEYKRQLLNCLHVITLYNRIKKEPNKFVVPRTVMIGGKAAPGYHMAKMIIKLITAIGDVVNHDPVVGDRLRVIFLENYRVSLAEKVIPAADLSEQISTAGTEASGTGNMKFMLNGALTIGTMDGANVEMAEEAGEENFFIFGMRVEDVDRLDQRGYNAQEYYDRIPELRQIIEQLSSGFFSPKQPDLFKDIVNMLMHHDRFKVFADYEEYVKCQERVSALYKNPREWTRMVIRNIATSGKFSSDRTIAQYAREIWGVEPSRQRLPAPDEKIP
The experiment in a line: In vitro glycogen phosphorylase inhibition assay (direction of glycogen synthesis, colorimetric phosphate). The format is biochemical. Conditions: for inhibition at 50 µM: at 50 μM (highest concentration tested). The method, then: The GP activity was measured using a previously optimized and validated method. In each assay, GP activity was measured by the direction of glycogen synthesis, which involved monitoring the colorimetric determination of inorganic phosphate deriving from glucose 1-phosphate. […] The enzymatic reaction was then started with the addition of a 50 mM HEPES buffer solution, with a pH of 7.2, containing 100 mM KCl, 2.5 mM MgCl2, 0.25 mM glucose 1-phosphate, and 0.25 mg/mL glycogen incubated for 30 min at 37 °C. After this incubation time, the reagent for colorimetric phosphate quantitation, BIOMOL® Green, was added to the reaction mixture. The reaction was monitored in a microplate reader (Synergy HT, BioTek Instruments, Winooski, VT, USA) at 620 nm.

Setting [1] is: mean ± SEM, read-out: GPa inhibitory activity (%).

With `Oc1ccccc1-c1n[nH]cc1/C=C/c1ccccc1` [Compound 1], under setting [1], the inhibition at 50 µM is under 30%.
On the same count and under the same terms, under `Oc1ccccc1-c1n[nH]cc1/C=C/c1ccc(Cl)cc1` [Compound 2] stands under 30%.
`COc1ccc(/C=C/c2c[nH]nc2-c2ccccc2O)cc1` [Compound 3]: the inhibition at 50 µM under setting [1] is under 30%.
As to `Oc1ccccc1-c1n[nH]cc1/C=C/c1ccccc1C(F)(F)F` [Compound 4], the inhibition at 50 µM under setting [1] is under 30%.
Still for that read-out and setting: in the case of `CCCCCCCCCCn1cc(/C=C/c2ccccc2)c(-c2ccccc2O)n1` [Compound 5] it was under 30%; in that of `CCCCCCCCCCCCn1cc(/C=C/c2ccccc2)c(-c2ccccc2O)n1` [Compound 6], under 30%.
Still for that read-out and setting: in the case of `CCCCCCCCCCCCn1cc(/C=C/c2ccc(Cl)cc2)c(-c2ccccc2O)n1` [Compound 7] it was under 30%.
Same read-out and setting: in the case of `O=[N+]([O-])c1cccc(/C=C\c2c[nH]nc2-c2ccccc2O)c1` [Compound 8] it was under 30%.
With `COc1ccc(-c2n[nH]cc2/C=C\c2ccc([N+](=O)[O-])cc2)c(O)c1` [Compound 9], the inhibition at 50 µM under setting [1] was under 30%.
The same measure, in the same setting: in the case of `Oc1ccccc1-c1cc(/C=C/c2ccccc2)[nH]n1` [Compound 10] it was under 30%; in that of `Oc1ccccc1-c1cc(/C=C/c2ccc(Cl)cc2)[nH]n1` [Compound 11], under 30%.
On the same count and under the same terms, under `COc1ccc(/C=C/c2cc(-c3ccccc3O)nn2-c2ccccc2)cc1` [Compound 12] stands under 30%.
Still for that read-out and setting: under `COc1ccc(/C=C/c2cc(-c3ccccc3O)nn2S(=O)(=O)c2ccc(C)cc2)cc1` [Compound 13] stands under 30%; under `Cc1ccc(S(=O)(=O)Oc2ccccc2-c2cc(/C=C/c3ccccc3)n(S(=O)(=O)c3ccc(C)cc3)n2)cc1` [Compound 14], under 30%.
Turning to `COc1ccc(/C=C/c2cc(-c3ccccc3OS(=O)(=O)c3ccc(C)cc3)nn2S(=O)(=O)c2ccc(C)cc2)cc1` [Compound 15], the inhibition at 50 µM under setting [1] was under 30%.
Same read-out and setting: in the case of `O=c1cc(/C=C/c2ccccc2)oc2cc(O)ccc12` [Compound 16] it was under 30%; in that of `O=c1cc(/C=C/c2ccc(O)cc2)oc2cc(O)ccc12` [Compound 17], under 30%.
Same read-out and setting: in the case of `O=c1cc(/C=C/c2ccc(O)c(O)c2)oc2ccccc12` [Compound 18] it was under 30%; in that of `O=c1cc(/C=C/c2ccc(O)c(O)c2)oc2cc(O)ccc12` [Compound 19], under 30%; in that of `O=c1cc(/C=C/c2ccc(O)c(O)c2)oc2cccc(O)c12` [Compound 20], under 30%.
On the same count and under the same terms, under `O=c1cc(/C=C/c2ccccc2)oc2cc(O)cc(O)c12` [Compound 21] stands under 50%; under `O=c1cc(/C=C/c2ccc(O)cc2)oc2cc(O)cc(O)c12` [Compound 22], under 50%.
What is called IC50 is the concentration that gives 50% inhibition. For `O=c1cc(/C=C/c2ccc(O)c(O)c2)oc2cc(O)cc(O)c12` [Compound 23], the IC50 (no glucose, mean ± SEM, read-out: GPa IC50 value) came out at 31.7 ± 2.4 µM.
In the case of `O=c1c(O)c(/C=C/c2ccc(O)c(O)c2)oc2c(O)c(O)ccc12` [Compound 24], under “Table S2 summary of activities, read-out: IC50”, the concentration for half-maximal inhibition (IC50) was over 25 µM. In addition, for the setting “at 25 μM (highest concentration tested), mean ± SEM, read-out: GPa inhibitory activity (%)”, the inhibition at 25 µM amounted to 33.7 ± 6.5%.
With `COc1cc(OC)c2c(=O)cc(/C=C/c3ccc(O)c(O)c3)oc2c1` [Compound 25], the inhibition at 50 µM under setting [1] was under 30%.
Same read-out and setting: under `COc1cc(OC)c2c(=O)cc(/C=C/c3ccc(OC)c(OC)c3)oc2c1` [Compound 26] stands 42.2 ± 5.6%; under `COc1ccc(/C=C/c2cc(=O)c3ccc(OC)c(OC)c3o2)cc1OC` [Compound 27], under 30%.
Turning to `COc1ccc2c(=O)cc(/C=C/c3ccc(OC)c(OC)c3)oc2c1` [Compound 28], the inhibition at 50 µM under setting [1] was under 30%.
Turning to `COc1ccc(/C=C/c2cc(=O)c3c(OC)cccc3o2)cc1OC` [Compound 29], the inhibition at 50 µM under setting [1] is under 30%.
Still for that read-out and setting: in the case of `O=c1cc(/C=C/C=C/c2ccc(O)c(O)c2)oc2ccccc12` [Compound 30] it was under 30%; in that of `O=c1cc(/C=C/C=C/c2ccc(O)c(O)c2)oc2cccc(O)c12` [Compound 31], under 30%.
